pIC50: −log10 of the molar value. Blank lines part the entries; values can stand above or below the compound they belong to.
Experiments:
[1] = Compatibility test: stability of SS linker on sodium dithionite treatment (MALDI-TOF MS); type: physicochemical; conditions: 25 mM Na2S2O4 in PBS pH 7.4, 30 min at 37° C.
Procedure: Disclosed herein are the results of a compatibility test was performed using 3′-O-SS-dATP-SS-Rox (cal: MW1344.36 Da, observed 1345.61) as model compound. 2 μl of 0.1 mM 3′-O-SS-dATP-SS-Rox was treated with 100 μL of freshly made 25 mM Na2S2O4 (in PBS buffer [pH 7.4]) and the mixture was kept shaking for 30 min at 37° C. Then desalination was carried out with a ZipTip, and the product was subjected to MALDI TOF MS measurement. […] The result proves that the disulfide linker is stable at much higher concentration of sodium dithionite and at longer reaction time than necessary to cleave the Azo linker.
An additional compatibility test was conducted on 3′-SS-dC extended ssDNA. The single base extension experiment was carried out by adding 20 pmol Exon 8 template, 60 pmol primer (M.W. 5144), 2 mM MnCl2 and 2 U Therminator 9 polymerase in 20 μl 1×Pol buffer in each PCR reaction tube which were subject to PCR thermocycles (65° C. for 30″ 45° C. for 30″, 38 cycles). After completion of the incorporation, NaS2O4 solution was added to the reaction tube to a final concentration of 20 mM and incubated at room temperature for 40 min. Then the reaction mixture was treated with a Clean & Concentrator column to purify ssDNA. The resulting oligonucleotide was subject to MALDI-TOF MS measurement. […]

[2] = system: Therminator IX DNA polymerase; experiment: Single base extension reaction, checked by MALDI-TOF MS; type: biochemical; set-up: efficiency of primer strand extension: concentration or dose not given beside the values; conditions: for efficiency of primer strand extension: no primer peak is visible
Procedure: A single base DNA extension reaction (SBE) was performed with 3′-O-SS (DTM)-dTTP-PEG4-Azo-Cy5, using a primer (5′-[…]-3′ [SEQ ID 1]) and a synthetic DNA template (5′-[…]-3′ [SEQ ID 2]) based on a portion of exon 8 of the human p53 gene as follows. The bold letters in the template represent the extension position for the primers. 2 μL of 10× concentrated buffer, 1 μL of primer, E8TT (MW: 5163, 100 μM), 3 μL of Exon 8 template (20 μM), 1 μL of nucleotide (3′-O-t-butyl-SS-dTTP-PEG4-Azo-Cy5, 432 μM), 1 μL of Therminator IX DNA Polymerase, T9 (10 U/λ) and 12 μL of dH2O were combined in a total volume of 20 μL. The reaction consisted of 38 cycles at 65° C. for 30 seconds and 45° C. for 30 seconds. Single base extension was confirmed by MALDI-TOF MS as indicated by the major peak at 6791.8 Da (calc'd, 6782.4 Da) in the spectrum.
Synthesized 3′-O-t-butyl-SS-dATP-PEG4-Azo-Biotin was used to perform a single-base extension reaction. The primer E8AA-6084 (5′-[…]-3′ at 6084 Da), exon 8 template (see sequence above) and Therminator IX DNA polymerase (T9) were added along with the modified nucleotides. In the 3′-O-t-butyl-SS-dATP-PEG4-Azo-Biotin (A7) incorporation reaction, the primer was extended to 7327.4 Da (expected, 7326.3 Da). No primer peak was detected using MALDI TOF MS after 38 cycles of reaction.
Extension reactions consisted of 3 μl template (60 μM), 1 μl primer (100 μM), 2 μl of one of the above ddNTP analogues (100 μM), 2 μl 10× Thermo Pol Buffer, 1 μl Therminator IX DNA polymerase (10 unit/μl) and 11 μl water. Extension was performed in a thermal cycler and consisted of 1 min denaturation at 65° C., followed by 38 cycles of 30 sec at 65° C., 30 sec at 45° C. and 30 sec at 65° C., with a final 3 min extension at 72° C., and storage at 4° C. Desalting was carried out using Oligo Clean & Concentrator (Zymo Research) according to the manufacturer's instructions prior to checking results of polymerase reaction by MALDI-TOF-MS.

[3] = Sodium dithionite cleavage of azo linker on single base extended primer (MALDI-TOF MS); type: physicochemical
Procedure: The azo cleavage reaction was performed on single base extended primer (E8TT+3′-O-t-butyl-SS-dTMP-PEG4-Azo-Cy5, 6782.4 Da). A 1M stock solution of Na2S2O4 was prepared in 1×PBS buffer (pH 7.4). 1.25 μL Na2S2O4 solution was added to the extended primer solution (20 μL, 32 μM) along with 28.75 μL of 1×PBS buffer. […] Afterwards, reaction mixtures were purified with a ZipTip and concentrated using a Speed Vac. The size of the cleaved extended primer was characterized by MALDI-TOF MS as 6009.44 Da (calc'd: 6008.9 Da).
Single base extended primers (6084ExAA+3′-O-t-butyl-SS-dAMP-PEG4-Azo-Biotin, 7327.4 Da) was treated with 25 mM sodium dithionite in 1×PBS buffer. […] The azo cleaved product reflects a molecular weight of 6951.1 Da which agrees with the expected value of 6952.3 Da. […]

[4] = THP cleavage of SS linker / 3′ blocking group on extended primer (MALDI-TOF MS); type: physicochemical
Procedure: Tris(hydroxypropyl)phosphine (THP) (1 μL, 1 mM) was added to the azo cleaved extended primer (9 μL, 15 μM) (E8TT+3′-O-t-butyl-SS-dTMP-PEG4-aniline, 6009.44 Da). […] After the spin column-based nucleic acid purification (ZymoPURE Oligo Clean & Concentrator), the product was confirmed by MALDI-TOF MS: 5881.4 Da (calc'd: 5874.9 Da). […]

Thermo Sequenase = Thermo Sequenase (Thermus aquaticus, UniProt P19821, F272M/F667Y); conditions: read-out: concentration that produces the half maximum fluorescent intensity; 0.3 μM single fluorescein labeled self-primed template, 10 pH dCTP, ddCTP 0 to 10 μM
Chain of Thermo Sequenase (P19821 272-832 F272M/F667Y): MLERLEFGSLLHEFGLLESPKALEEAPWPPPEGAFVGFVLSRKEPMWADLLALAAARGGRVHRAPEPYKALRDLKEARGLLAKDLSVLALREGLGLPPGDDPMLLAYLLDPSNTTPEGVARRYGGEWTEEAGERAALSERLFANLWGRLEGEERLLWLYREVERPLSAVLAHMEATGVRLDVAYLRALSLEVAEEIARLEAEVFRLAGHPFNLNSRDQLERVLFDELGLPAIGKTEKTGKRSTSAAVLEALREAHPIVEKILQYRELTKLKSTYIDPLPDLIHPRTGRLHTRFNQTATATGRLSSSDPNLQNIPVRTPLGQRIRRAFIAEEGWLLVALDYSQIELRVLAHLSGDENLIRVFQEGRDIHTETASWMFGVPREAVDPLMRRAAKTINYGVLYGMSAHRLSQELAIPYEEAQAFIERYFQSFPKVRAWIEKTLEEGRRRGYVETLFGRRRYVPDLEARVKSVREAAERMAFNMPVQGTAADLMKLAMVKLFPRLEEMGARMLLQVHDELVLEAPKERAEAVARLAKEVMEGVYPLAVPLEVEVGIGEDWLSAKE
Procedure: A. Varying concentrations of ddCTP (0 to 10 μM) were added to solutions containing Thermo Sequenase, 0.3 μM single fluorescein labeled self-primed template and 10 pH dCTP. […] B. The same experiments performed with the tagged ddCTP (0 to 5 μM) shown in FIG. 79 in the presence of the same template and 5 μM dCTP.
Extension reactions were prepared with the primer, Thermo Sequenase, dCTP and various dilutions of ddCTP or tagged ddCTP. First, a series of SBE reactions were carried out with final ddCTP concentrations ranging from 0 to 10 μM at a concentration of dCTP of 10 μM and 0.3 pH of labeled primer. Under these conditions, the primer is extended by the incorporation of dCTP until it encounters ddCTP incorporation. […] Fluorescence intensity was measured on a SpectraMax3 Microplate Reader (Molecular Devices, LLC).

[5] = 25 mM sodium dithionite at 45° C. for 1 minute

Compound: 3′-O-SS-dATP-SS-Rox
- integrity in the presence of Na2S2O4 [1]: no cleavage or degradation was observed

Compound: 3′-O-t-Butyl-SS(DTM)-dATP-PEG4-Azo-Biotin [3′-O-t-butyl-SS-dATP-PEG4-Azo-Biotin]
- efficiency of primer strand extension [2]: ~100%
- cleavage of azo linker on extended primer ([3]; 25 mM sodium dithionite in 1×PBS, 37° C. for 10 min): can be cleaved efficiently

Compound: Nc1ccn([C@H]2CC[C@@H](COP(=O)(O)OP(=O)(O)OP(=O)(O)O)O2)c(=O)n1 [ddCTP]
- pIC50 (Thermo Sequenase): ~6.30

Compound: ddTTP-5-Azo-Cy5
- efficiency of primer strand extension [2]: ~100%
- cleavage of azo linker on extended primer [3, 5]: complete cleavage

The next lines start with results.

- incorporation rate ([2]; 38 cycles at 65° C. for 30 seconds and 45° C. for 30 seconds, no primer peak observed): 100%
- cleavage of azo linker on extended primer ([3]; 25 mM sodium dithionite at 37° C. for 20 minutes): complete cleavage
Compound: 3′-O-t-Butyl-SS(DTM)-dTTP-PEG4-Azo-Cy5 [3′-O-t-butyl-SS-dTTP-PEG4-Azo-Cy5]
- removal of 3′ blocking group ([4]; 1 mM THP for 5 minutes at 65° C.): removed the blocking group with high efficiency

- efficiency of primer strand extension [2]: ~100%
- cleavage of azo linker on extended primer [3, 5]: complete cleavage
Compound: ddATP-7-Azo-Biotin

- efficiency of primer strand extension [2]: ~100%
- cleavage of SS linker on extended primer ([4]; THP): complete cleavage
Compound: ddCTP-5-SS-Biotin

- efficiency of primer strand extension [2]: ~100%
Compound: ddGTP-7-SS-Cy5

From patent publication US12188086B2, “Nucleotide analogues and use thereof for nucleic acid sequencing and analysis preliminary class” (The Trustees of Columbia University in the City of New York, priority 2018, dated 2025)
